Data from ChEMBL document CHEMBL1122998, “New antihistaminic theophylline or theobromine derivatives” (1985).

How the values were obtained:
[1] = test system: Cavia porcellus; test: Percent decrease in bronchodilator activity against acetylcholine-induced bronchospasm reaction in guinea pig by intraveneous administration at dose 250 ug/kg; type: functional
[2] = test system: Rattus norvegicus; test: Percentage decrease in antiallergic activity against cutaneous reaction to histamine in rat, by oral administration at a dose of 10 mg/kg; type: functional
[3] = test system: Cavia porcellus; test: Percent decrease in bronchodilator activity against histamine-induced bronchospasm reaction in guinea pig by intraveneous administration at dose 10.5 ug/kg
[4] = test system: Cavia porcellus; test: Percentage decrease in bronchodilator activity against serotonin-induced bronchospasm reaction in guinea pig by intraveneous administration at dose 250 ug/kg; type: functional
[5] = test system: Rattus norvegicus; test: Percent decrease in antiallergic activity by antigen/antibody reaction assay in rat by oral administration at a dose of 10 mg/kg; type: functional

Row | SMILES | Decrease [1] [%] | Decrease [2] [%] | Decrease [3] [%] | Decrease [4] [%] | Decrease [5] [%]
1 | Cn1cnc2c1c(=O)n(CC(O)CN1CCN(CCCSc3ccc(Cl)cc3)CC1)c(=O)n2C (stereo unspecified) | 11 | 0 | 0 | 8 | 0
2 | Cn1c(=O)c2c(ncn2CCCN2CCN(CCCCSc3ccc(Cl)cc3)CC2)n(C)c1=O | 26 | 0 | 3 | 23 | 0
3 | COc1ccc(OCCCN2CCN(CCCn3cnc4c3c(=O)n(C)c(=O)n4C)CC2)cc1 | 25 | 0 | 60 | 0 | 0
4 | Cn1cnc2c1c(=O)n(CC(O)CN1CCN(CCCOc3ccccc3)CC1)c(=O)n2C (stereo unspecified) | 0 | 30 | 10 | 50 | 76
5 | Cn1c(=O)c2c(ncn2CC(=O)N2CCN(CCCSc3ccccc3)CC2)n(C)c1=O | 16 | 10 | 31 | 21 | 15
6 | Cn1cnc2c1c(=O)n(CC(O)CN1CCN(CCCSc3ccccc3)CC1)c(=O)n2C (stereo unspecified) | 24 | 10 | 66 | 96 | 43
7 | Cn1c(=O)c2c(ncn2CCN2CCN(CCCSc3ccccc3)CC2)n(C)c1=O | 0 | 21 | 0 | 48 | 28
8 | Cn1c(=O)c2c(ncn2CCC(=O)N2CCN(CCCSc3ccccc3)CC2)n(C)c1=O | 3 | 0 | 2 | 0 | 0
9 | Cc1ccc(SCCCN2CCN(CCCn3c(=O)c4c(ncn4C)n(C)c3=O)CC2)cc1 | 24 | 6.5 | 13 | 6 | 0
10 | Cn1c(=O)c2c(ncn2CCCN2CCN(CCCCOc3ccccc3)CC2)n(C)c1=O | 35 | 0 | 80 | 26 | 0
11 | COc1ccc(OCCCN2CCN(CC(O)Cn3c(=O)c4c(ncn4C)n(C)c3=O)CC2)cc1 (stereo unspecified) | 11 | 0 | 28 | 3 | 0
12 | Cn1c(=O)c2c(ncn2CCCN2CCN(CCOc3ccccc3)CC2)n(C)c1=O | 15 | 0 | 70 | 0 | 0
13 | Cn1cnc2c1c(=O)n(CCCN1CCN(CCCSc3ccc(Cl)cc3)CC1)c(=O)n2C | 27 | 12 | 0 | 47 | 17.5
14 | Cn1c(=O)c2c(ncn2CC(O)CN2CCN(CC(O)CSc3ccccc3)CC2)n(C)c1=O (stereo unspecified) | 0 | 29 | 89 | 0 | 0
15 | Cn1c(=O)c2c(ncn2CC(O)CN2CCN(CCCCSc3ccccc3)CC2)n(C)c1=O (stereo unspecified) | 34 | 0 | 13 | 0 | 0
16 | Cc1ccc(SCCCN2CCN(CC(O)Cn3cnc4c3c(=O)n(C)c(=O)n4C)CC2)cc1 (stereo unspecified) | 0 | 24 | 5 | 0 | 19
17 | Cn1c(=O)c2c(ncn2CC(O)CN2CCN(CCCCOc3ccccc3)CC2)n(C)c1=O (stereo unspecified) | 45 | 0 | 82 | 22 | 0
18 | Cn1c(=O)c2c(ncn2CCCCCCN2CCN(CCCCSc3ccccc3)CC2)n(C)c1=O | 23 | 0 | 0 | 23 | 0
19 | Cn1c(=O)c2c(ncn2CCCN2CCN(CCCSc3ccc(Cl)cc3)CC2)n(C)c1=O | 0 | 0 | 25 | 0 | 0
20 | CN(CCCSc1ccccc1)CCN(C)CCCn1cnc2c1c(=O)n(C)c(=O)n2C | 12 |  | 2 | 50 | 
21 | Cn1c(=O)c2c(ncn2CCCN2CCN(CCCOc3ccccc3)CC2)n(C)c1=O | 30 | 28 | 88 | 35 | 48
22 | Cn1c(=O)c2c(ncn2CCCN2CCN(CCCOc3ccc(Cl)cc3)CC2)n(C)c1=O | 0 | 0 | 30 | 0 | 0
23 | COc1ccc(SCCCN2CCN(CCCn3cnc4c3c(=O)n(C)c(=O)n4C)CC2)cc1 | 0 |  | 53 | 0 | 

Row | SMILES | Decrease [1] [%] | Decrease [2] [%] | Decrease [3] [%] | Decrease [4] [%] | Decrease [5] [%]
24 | CC(C(=O)N1CCN(CCCSc2ccccc2)CC1)n1cnc2c1c(=O)n(C)c(=O)n2C (stereo unspecified) | 4 | 6 | 3 | 0 | 5
25 | Cc1ccc(SCCCN2CCN(CC(O)Cn3c(=O)c4c(ncn4C)n(C)c3=O)CC2)cc1 (stereo unspecified) | 29 | 4 | 10 | 42 | 11
26 | Cc1cc(OCCCN2CCN(CC(O)Cn3c(=O)c4c(ncn4C)n(C)c3=O)CC2)cc(C)c1Cl (stereo unspecified) | 0 | 8 | 2 | 53 | 8
27 | Cn1c(=O)c2c(ncn2CC(O)CN2CCN(CCCCSc3ccc(Cl)cc3)CC2)n(C)c1=O (stereo unspecified) | 0 | 0 | 0 | 0 | 0
28 | COc1cc(OCCCN2CCN(CCCn3cnc4c3c(=O)n(C)c(=O)n4C)CC2)cc(OC)c1OC | 0 |  | 0 | 0 | 
29 | Cn1c(=O)c2c(ncn2CC(O)CN2CCN(CCCOc3ccc(Cl)cc3)CC2)n(C)c1=O (stereo unspecified) | 0 | 44 | 19 | 0 | 22
30 | Cn1cnc2c1c(=O)n(CCCN1CCN(CCCOc3ccc(Cl)cc3)CC1)c(=O)n2C | 18 | 12.5 | 14 | 30 | 13
31 | Cn1c(=O)c2c(ncn2CC(O)CN2CCN(CCCOc3ccccc3)CC2)n(C)c1=O (stereo unspecified) | 23 | 78 | 87 | 43 | 94
32 | Cn1c(=O)c2c(ncn2CCC(O)CCN2CCN(CCCSc3ccccc3)CC2)n(C)c1=O (stereo unspecified) | 20 | 38 | 35 | 36 | 70
33 | Cn1c(=O)c2c(ncn2CC(O)CN2CCCN(CCCSc3ccccc3)CC2)n(C)c1=O (stereo unspecified) | 0 | 4 | 74 | 0 | 0
34 | Cn1c(=O)c2c(ncn2CCCN2CCN(CCCCSc3ccccc3)CC2)n(C)c1=O | 34 | 0 | 47 | 24 | 0
35 | COc1ccc(OCCCN2CCN(CC(O)Cn3cnc4c3c(=O)n(C)c(=O)n4C)CC2)cc1 (stereo unspecified) | 0 | 0 | 27 | 0 | 0
36 | Cn1cnc2c1c(=O)n(CCCN1CCN(CCCSc3ccccc3)CC1)c(=O)n2C | 10 | 31.5 | 56 | 25 | 15
37 | Cn1c(=O)c2c(ncn2CCCN2CCN(CC(O)CSc3ccccc3)CC2)n(C)c1=O (stereo unspecified) | 0 | 0 | 88 | 0 | 0
38 | Cn1c(=O)c2c(ncn2CC(O)CN2CCN(CCCSc3ccc(Cl)cc3)CC2)n(C)c1=O (stereo unspecified) | 0 | 67 | 24 | 0 | 35
39 | Cn1cnc2c1c(=O)n(CC(O)CN1CCN(CCCOc3ccc(Cl)cc3)CC1)c(=O)n2C (stereo unspecified) | 14 | 24 | 19 | 11 | 23
40 | Cn1c(=O)c2c(ncn2CC(O)CN2CCN(CCOc3ccccc3)CC2)n(C)c1=O (stereo unspecified) | 0 | 56 | 76 | 21 | 59
41 | Cn1c(=O)c2c(ncn2C/C=C/CN2CCN(CCCSc3ccccc3)CC2)n(C)c1=O | 0 | 4 | 8 | 20 | 8
42 | Cn1cnc2c1c(=O)n(CCCN1CCN(CC(O)CSc3ccccc3)CC1)c(=O)n2C (stereo unspecified) | 2 | 0 | 25 | 3 | 0
43 | Cc1ccc(SCCCN2CCN(CCCn3cnc4c3c(=O)n(C)c(=O)n4C)CC2)cc1 | 35 | 0 | 15 | 24 | 0
44 | CN(C)CCC(c1ccc(Cl)cc1)c1ccccn1 (stereo unspecified) [CHLORPHENIRAMINE] |  | 15 | 62 | 0 | 0
45 | CN1CCC(=C2c3ccccc3CC(=O)c3sccc32)CC1 [KETOTIFEN] |  | 90 | 10 |  | 64
